Source: EP4745137A1 (Gluetacs Therapeutics (Shanghai) Co., Ltd., priority 2023, dated 2025)
pIC50: −log10 of the molar value.

Experiments:
IKZF3 = target: T1, IKZF3 (Homo sapiens, UniProt Q96SW2+Q9UKT9); assay: Western-blot assay of substrate protein degradation in hPBMCs, IKZF3; assay type: cell-based; settings: 24 hours of compound treatment, compounds tested at 50 nM and 500 nM (concentration of the table not stated)
T1 construct: endogenous in cells; host or cells: hPBMCs (Milecell Biotechnologies)

WEE1 = target: T2, WEE1 (Homo sapiens, UniProt P30291+Q96SW2); assay: Western-blot assay of substrate protein degradation in hPBMCs, WEE1; assay type: cell-based; settings: 24 hours of compound treatment, compounds tested at 50 nM and 500 nM (concentration of the table not stated)
T2 construct: endogenous in cells; host or cells: hPBMCs (Milecell Biotechnologies)

NCI-H1975 = assay: Tumor cell proliferation inhibition (CellTiter-Meiluncell Luminescent Cell Viability Assay), NCI-H1975; settings: Homo sapiens, NCI-H1975, read-out: inhibitory activity (IC50, nM) against tumor cells proliferation, H1975
Jurkat = assay: Tumor cell proliferation inhibition (CellTiter-Meiluncell Luminescent Cell Viability Assay), Jurkat; settings: Homo sapiens, read-out: inhibitory activity (IC50, nM) against tumor cells proliferation, Jurkat
MM.1S = assay: Tumor cell proliferation inhibition (CellTiter-Meiluncell Luminescent Cell Viability Assay), MM.1S; settings: Homo sapiens, MM1.S, read-out: inhibitory activity (IC50, nM) against tumor cells proliferation, MM.1S
Procedure: (§1) The tumor cells used herein were cultured in a cell culture medium listed in table 2 at 37°C in an incubator with 5% CO2. Prior to experimentation, all cell lines used were correctly identified by STR profiling, and tested negative for mycoplasma contamination using a mycoplasma detection kit through routine screenings.
(§2) On the following day, the test compounds of the present disclosure were subjected to serial dilution. […] Subsequently, 0.5 µL of the test compound dilution was transferred into the 96-well plate containing the cells, with each well containing 100 µL of cell culture medium. […] Into the 96-well plate, the diluted test compounds and corresponding detection reagents were added, resulting in final test compound concentrations of 500 nM and 10 nM, respectively.
(§3) After the cells were treated with the compounds of the present disclosure for a specified period (the treatment durations were shown in Table 3), the cell viability assay reagent was added to the culture medium according to the kit's instructions to determine cell viability. […] All controls were treated using the same procedure as the compounds of the present disclosure. The growth inhibition curves for the compounds of the present disclosure were plotted using Prism GraphPad software, and the IC50 values were calculated therefrom.

[1] = target: T3, human Cereblon WT GST-tagged protein (Homo sapiens, UniProt Q96SW2); assay: CRBN-binding affinity by HTRF (CEREBLON BINDING kit); settings: HTRF inhibitory activity, CEREBLON BINDING kit; read-out: HTRF IC50
T3 construct: purchased CISBIO 64BDCRBNPEH

SR = assay: Tumor cell proliferation inhibition (CellTiter-Meiluncell Luminescent Cell Viability Assay), SR; settings: Homo sapiens, read-out: inhibitory activity (IC50, nM) against tumor cells proliferation, SR
Procedure: as §1, §2, §3

CK1α = target: T4, CK1α (Homo sapiens, UniProt P48729+Q96SW2); assay: Western-blot assay of substrate protein degradation in hPBMCs, CK1α; assay type: cell-based; settings: 24 hours of compound treatment, compounds tested at 50 nM and 500 nM (concentration of the table not stated)
T4 construct: endogenous in cells; host or cells: hPBMCs (Milecell Biotechnologies)

IKZF1 = target: T5, IKZF1 (Homo sapiens, UniProt Q13422+Q96SW2); assay: Western-blot assay of substrate protein degradation in hPBMCs, IKZF1; assay type: cell-based; settings: 24 hours of compound treatment, compounds tested at 50 nM and 500 nM (concentration of the table not stated)
T5 construct: endogenous in cells; host or cells: hPBMCs (Milecell Biotechnologies)

GSPT1 = target: T6, GSPT1 (Homo sapiens, UniProt P15170+Q96SW2); assay: Western-blot assay of substrate protein degradation in hPBMCs, GSPT1; assay type: cell-based; settings: 24 hours of compound treatment, compounds tested at 50 nM and 500 nM (concentration of the table not stated)
T6 construct: endogenous in cells; host or cells: hPBMCs (Milecell Biotechnologies)

IKZF2 = target: T7, IKZF2 (Homo sapiens, UniProt Q96SW2+Q9UKS7); assay: Western-blot assay of substrate protein degradation in hPBMCs, IKZF2; assay type: cell-based; settings: 24 hours of compound treatment, compounds tested at 50 nM and 500 nM (concentration of the table not stated)
T7 construct: endogenous in cells; host or cells: hPBMCs (Milecell Biotechnologies)

TMD8 = assay: Tumor cell proliferation inhibition (CellTiter-Meiluncell Luminescent Cell Viability Assay), TMD8; settings: Homo sapiens, TMD8, read-out: inhibitory activity (IC50, nM) against tumor cells proliferation, TMD8

T4 sequence (P48729 whole entry): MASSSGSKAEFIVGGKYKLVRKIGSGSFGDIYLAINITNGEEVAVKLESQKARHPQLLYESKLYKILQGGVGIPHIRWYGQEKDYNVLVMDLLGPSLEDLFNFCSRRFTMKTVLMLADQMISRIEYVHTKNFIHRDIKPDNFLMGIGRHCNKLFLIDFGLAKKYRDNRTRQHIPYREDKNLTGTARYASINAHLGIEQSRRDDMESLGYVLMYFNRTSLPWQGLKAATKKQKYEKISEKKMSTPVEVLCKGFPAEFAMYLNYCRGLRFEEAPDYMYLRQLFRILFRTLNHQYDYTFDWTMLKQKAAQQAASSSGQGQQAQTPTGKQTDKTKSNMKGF
T4 sequence (Q96SW2 whole entry): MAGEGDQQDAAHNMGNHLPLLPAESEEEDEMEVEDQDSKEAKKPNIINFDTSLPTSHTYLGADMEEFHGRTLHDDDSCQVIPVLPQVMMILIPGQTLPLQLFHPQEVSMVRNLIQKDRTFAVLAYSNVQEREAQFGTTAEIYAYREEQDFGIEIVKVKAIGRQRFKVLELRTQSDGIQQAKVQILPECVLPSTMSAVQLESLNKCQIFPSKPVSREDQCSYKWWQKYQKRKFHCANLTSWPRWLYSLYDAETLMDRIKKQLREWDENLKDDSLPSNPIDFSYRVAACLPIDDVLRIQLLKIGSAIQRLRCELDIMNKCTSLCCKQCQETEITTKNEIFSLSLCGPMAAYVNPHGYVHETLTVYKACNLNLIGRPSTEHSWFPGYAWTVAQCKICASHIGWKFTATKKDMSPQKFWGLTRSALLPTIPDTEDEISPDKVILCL
T4 sequence (Q16531 whole entry partner): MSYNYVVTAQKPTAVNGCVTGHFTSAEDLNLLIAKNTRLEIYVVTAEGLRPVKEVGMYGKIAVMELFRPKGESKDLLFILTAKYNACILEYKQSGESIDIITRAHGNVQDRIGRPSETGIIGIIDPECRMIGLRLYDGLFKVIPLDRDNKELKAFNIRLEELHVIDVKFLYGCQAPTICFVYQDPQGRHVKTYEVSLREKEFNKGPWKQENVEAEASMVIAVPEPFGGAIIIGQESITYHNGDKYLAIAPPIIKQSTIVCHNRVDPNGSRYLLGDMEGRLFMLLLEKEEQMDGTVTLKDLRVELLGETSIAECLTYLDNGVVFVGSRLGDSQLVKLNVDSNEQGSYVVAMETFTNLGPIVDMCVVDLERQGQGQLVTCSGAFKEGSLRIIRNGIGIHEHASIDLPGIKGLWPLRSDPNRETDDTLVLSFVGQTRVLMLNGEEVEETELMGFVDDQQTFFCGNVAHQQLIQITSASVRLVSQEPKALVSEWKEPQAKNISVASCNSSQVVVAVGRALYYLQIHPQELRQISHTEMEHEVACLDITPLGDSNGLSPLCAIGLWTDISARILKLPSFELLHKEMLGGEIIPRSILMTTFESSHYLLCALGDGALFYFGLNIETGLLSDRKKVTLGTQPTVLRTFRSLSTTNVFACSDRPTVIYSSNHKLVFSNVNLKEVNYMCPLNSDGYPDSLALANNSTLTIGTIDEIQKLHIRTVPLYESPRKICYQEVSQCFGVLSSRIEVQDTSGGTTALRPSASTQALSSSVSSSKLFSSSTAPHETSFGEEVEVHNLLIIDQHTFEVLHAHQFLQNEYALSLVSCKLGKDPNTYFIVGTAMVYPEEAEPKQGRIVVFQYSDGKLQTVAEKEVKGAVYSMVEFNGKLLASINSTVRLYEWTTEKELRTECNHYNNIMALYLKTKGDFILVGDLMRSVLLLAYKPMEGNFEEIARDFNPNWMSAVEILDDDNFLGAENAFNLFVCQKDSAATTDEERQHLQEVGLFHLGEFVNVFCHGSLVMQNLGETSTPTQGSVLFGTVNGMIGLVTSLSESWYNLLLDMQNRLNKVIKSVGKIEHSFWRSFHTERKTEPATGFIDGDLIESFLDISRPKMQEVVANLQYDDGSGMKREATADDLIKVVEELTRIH
T3 sequence (Q96SW2 whole entry): as the sequence (Q96SW2 whole entry) above
T5 sequence (Q13422 whole entry): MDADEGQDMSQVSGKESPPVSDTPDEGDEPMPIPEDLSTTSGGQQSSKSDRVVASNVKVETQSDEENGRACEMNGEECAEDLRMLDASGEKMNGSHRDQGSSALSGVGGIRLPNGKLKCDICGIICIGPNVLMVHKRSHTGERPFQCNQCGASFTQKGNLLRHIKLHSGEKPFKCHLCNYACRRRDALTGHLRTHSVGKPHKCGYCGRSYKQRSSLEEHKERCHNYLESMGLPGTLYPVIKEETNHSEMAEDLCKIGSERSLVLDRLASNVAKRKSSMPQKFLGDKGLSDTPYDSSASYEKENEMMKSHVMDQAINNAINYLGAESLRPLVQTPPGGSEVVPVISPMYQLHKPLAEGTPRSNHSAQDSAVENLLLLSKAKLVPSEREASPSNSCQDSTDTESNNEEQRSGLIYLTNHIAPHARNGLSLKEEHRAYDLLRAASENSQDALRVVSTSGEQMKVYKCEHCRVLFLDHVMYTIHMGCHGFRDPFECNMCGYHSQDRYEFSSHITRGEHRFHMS
T5 sequence (Q96SW2 whole entry): as the sequence (Q96SW2 whole entry) above
T5 sequence (Q16531 whole entry partner): as the sequence (Q16531 whole entry partner) above
T6 sequence (P15170 whole entry): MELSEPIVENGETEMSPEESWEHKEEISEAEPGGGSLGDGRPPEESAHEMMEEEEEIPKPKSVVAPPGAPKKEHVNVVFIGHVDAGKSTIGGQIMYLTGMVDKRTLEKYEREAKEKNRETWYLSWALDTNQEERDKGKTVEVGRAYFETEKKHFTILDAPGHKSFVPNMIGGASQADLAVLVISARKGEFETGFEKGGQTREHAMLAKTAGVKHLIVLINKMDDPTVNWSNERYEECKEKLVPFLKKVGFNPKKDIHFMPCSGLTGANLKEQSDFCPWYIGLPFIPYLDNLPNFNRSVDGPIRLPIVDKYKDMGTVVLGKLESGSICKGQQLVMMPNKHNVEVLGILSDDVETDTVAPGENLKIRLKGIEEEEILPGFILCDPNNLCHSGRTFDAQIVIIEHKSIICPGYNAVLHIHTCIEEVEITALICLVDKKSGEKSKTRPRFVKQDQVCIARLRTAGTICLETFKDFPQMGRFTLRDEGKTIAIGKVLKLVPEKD
T6 sequence (Q96SW2 whole entry): as the sequence (Q96SW2 whole entry) above
T6 sequence (Q16531 whole entry partner): as the sequence (Q16531 whole entry partner) above
T2 sequence (P30291 whole entry): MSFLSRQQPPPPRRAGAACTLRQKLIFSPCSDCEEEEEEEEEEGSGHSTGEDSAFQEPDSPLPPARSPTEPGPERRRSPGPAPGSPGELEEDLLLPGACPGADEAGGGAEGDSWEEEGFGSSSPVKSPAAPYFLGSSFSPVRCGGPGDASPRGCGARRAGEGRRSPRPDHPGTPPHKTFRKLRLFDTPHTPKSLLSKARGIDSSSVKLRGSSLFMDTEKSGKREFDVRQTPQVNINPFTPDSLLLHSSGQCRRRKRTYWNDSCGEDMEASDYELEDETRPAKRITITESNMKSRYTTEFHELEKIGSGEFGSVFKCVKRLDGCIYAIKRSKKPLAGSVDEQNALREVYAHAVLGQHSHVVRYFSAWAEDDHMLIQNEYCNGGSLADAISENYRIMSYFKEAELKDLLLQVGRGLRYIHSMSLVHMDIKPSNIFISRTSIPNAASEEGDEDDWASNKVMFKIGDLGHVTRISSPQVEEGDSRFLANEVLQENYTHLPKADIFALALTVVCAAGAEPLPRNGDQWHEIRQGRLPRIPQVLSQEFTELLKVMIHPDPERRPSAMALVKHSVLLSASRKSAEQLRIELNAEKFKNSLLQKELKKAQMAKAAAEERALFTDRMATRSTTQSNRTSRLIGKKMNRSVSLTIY
T2 sequence (Q96SW2 whole entry): as the sequence (Q96SW2 whole entry) above
T2 sequence (Q16531 whole entry partner): as the sequence (Q16531 whole entry partner) above
T7 sequence (Q9UKS7 whole entry): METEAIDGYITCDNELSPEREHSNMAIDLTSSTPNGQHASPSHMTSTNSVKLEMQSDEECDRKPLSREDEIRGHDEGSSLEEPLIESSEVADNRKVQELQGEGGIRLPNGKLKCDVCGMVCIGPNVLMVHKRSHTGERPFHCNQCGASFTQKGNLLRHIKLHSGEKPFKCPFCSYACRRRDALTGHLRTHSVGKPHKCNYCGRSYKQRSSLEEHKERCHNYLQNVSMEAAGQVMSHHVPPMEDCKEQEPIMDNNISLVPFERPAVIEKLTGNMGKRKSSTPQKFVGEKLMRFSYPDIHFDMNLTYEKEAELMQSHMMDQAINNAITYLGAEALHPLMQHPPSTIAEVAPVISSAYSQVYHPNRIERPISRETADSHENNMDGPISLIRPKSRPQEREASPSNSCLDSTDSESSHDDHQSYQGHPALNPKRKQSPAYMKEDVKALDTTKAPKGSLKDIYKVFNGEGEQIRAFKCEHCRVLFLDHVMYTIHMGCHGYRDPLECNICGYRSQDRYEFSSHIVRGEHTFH
T7 sequence (Q96SW2 whole entry): as the sequence (Q96SW2 whole entry) above
T7 sequence (Q16531 whole entry partner): as the sequence (Q16531 whole entry partner) above

IC50 (NCI-H1975) [nM]	IC50 (Jurkat) [nM]	IC50 (MM.1S) [nM]	pIC50 [1]	IC50 (TMD8) [nM]	SMILES	IKZF3 substrate protein remaining % (IKZF3)	Weel substrate protein remaining % (WEE1)	IC50 (SR) [nM]	CK1a substrate protein remaining % (CK1α)	IKZF 1 substrate protein remaining % (IKZF1)	GSPT1 substrate protein remaining % (GSPT1)	IKZF2 substrate protein remaining % (IKZF2)
1 to 5	1 to 5	< 1	> 6.30		O=C1CCC(N2Cc3cc(CN4CC=C(c5cccc6c(F)cccc56)CC4)ccc3C2=O)C(=O)N1 (stereo not shown) [GT-04902, 3-(5-((4-(5-fluoronaphthalen-1-yl)-3,6-dihydropyridin-1(2H)-yl)methyl)-1-oxoisoindolin-2-yl)piperidine-2,6-dione]	A (0% ≤ substrate protein remaining % ≤ 80%)	A (0% ≤ substrate protein remaining % ≤ 80%)	5 to 10	A (0% ≤ substrate protein remaining % ≤ 80%)	A (0% ≤ substrate protein remaining % ≤ 80%)	A (0% ≤ substrate protein remaining % ≤ 80%)	A (0% ≤ substrate protein remaining % ≤ 80%)
50 to 100	50 to 100	1 to 5	> 6.30		O=C1CCC(N2Cc3cc(CN4CCC(c5noc6ccccc56)CC4)ccc3C2=O)C(=O)N1 (stereo not shown) [GT-04907, 3-(5-((4-(benzo[d]isoxazol-3-yl)piperidin-1-yl)methyl)-1-oxoisoindolin-2-yl)piperidine-2,6-dione]	A (0% ≤ substrate protein remaining % ≤ 80%)	A (0% ≤ substrate protein remaining % ≤ 80%)		B (80%< substrate protein remaining %≤ 100%)	A (0% ≤ substrate protein remaining % ≤ 80%)	A (0% ≤ substrate protein remaining % ≤ 80%)	A (0% ≤ substrate protein remaining % ≤ 80%)
500 to 1000	100 to 500	100 to 500			O=C1CCC(N2C(=O)c3ccc(CN4CCN(c5cccc6sccc56)CC4)cc3C2=O)C(=O)N1 (stereo not shown) [GT-04915, 5-((4-(benzo[b]thiophen-4-yl)piperazin-1-yl)methyl)-2-(2,6-dioxopiperidin-3-yl)isoindoline-1,3-dione]	A (0% ≤ substrate protein remaining % ≤ 80%)	A (0% ≤ substrate protein remaining % ≤ 80%)		A (0% ≤ substrate protein remaining % ≤ 80%)	A (0% ≤ substrate protein remaining % ≤ 80%)	A (0% ≤ substrate protein remaining % ≤ 80%)	A (0% ≤ substrate protein remaining % ≤ 80%)
		1 to 5	6.00 to 6.30	10 to 50	O=C1CCC(N2Cc3cc(CN4CCN(c5n[nH]c6cc(F)ccc56)CC4)ccc3C2=O)C(=O)N1 (stereo not shown) [GT-05264, 3-(5-((4-(6-fluoro-1H-indazol-3-yl)piperazin-1-yl)methyl)-1-oxoisoindolin-2-yl)piperidine-2,6-dione]	A (0% ≤ substrate protein remaining % ≤ 80%)	A (0% ≤ substrate protein remaining % ≤ 80%)		A (0% ≤ substrate protein remaining % ≤ 80%)	A (0% ≤ substrate protein remaining % ≤ 80%)	A (0% ≤ substrate protein remaining % ≤ 80%)	A (0% ≤ substrate protein remaining % ≤ 80%)
		1 to 5	6.00 to 6.30	10 to 50	O=C1CCC(N2Cc3cc(CN4CCN(c5nc(N6CCCCC6)nc6c5SCC6)CC4)ccc3C2=O)C(=O)N1 (stereo not shown) [GT-05380, 3-(1-oxo-5-((4-(2-(piperidin-1-yl)-6,7-dihydrothieno[3,2-d]pyrimidin-4-yl)piperazin-1-yl)methyl)isoindolin-2-yl)piperidine-2,6-dione]	A (0% ≤ substrate protein remaining % ≤ 80%)	A (0% ≤ substrate protein remaining % ≤ 80%)		A (0% ≤ substrate protein remaining % ≤ 80%)	A (0% ≤ substrate protein remaining % ≤ 80%)	A (0% ≤ substrate protein remaining % ≤ 80%)	A (0% ≤ substrate protein remaining % ≤ 80%)

Further lines, the compound ahead of its results:

SMILES	IC50 (NCI-H1975) [nM]	IC50 (Jurkat) [nM]	IC50 (MM.1S) [nM]	pIC50 [1]	IC50 (TMD8) [nM]	IKZF3 substrate protein remaining % (IKZF3)	Weel substrate protein remaining % (WEE1)	IC50 (SR) [nM]	CK1a substrate protein remaining % (CK1α)	IKZF 1 substrate protein remaining % (IKZF1)	GSPT1 substrate protein remaining % (GSPT1)	IKZF2 substrate protein remaining % (IKZF2)
O=C1CCC(N2Cc3cc(CN4C5CCC4CN(c4cccc(Cl)c4Cl)C5)ccc3C2=O)C(=O)N1 (stereo not shown) [GT-04855, 3-(5-((3-(2,3-dichlorophenyl)-3,8-diazabicyclo[3.2.1]octan-8-yl)methyl)-1-oxoisoindolin-2-yl)piperidine-2,6-dione]	50 to 100	50 to 100	5 to 10	> 6.30		A (0% ≤ substrate protein remaining % ≤ 80%)	A (0% ≤ substrate protein remaining % ≤ 80%)	500 to 1000	B (80%< substrate protein remaining %≤ 100%)	A (0% ≤ substrate protein remaining % ≤ 80%)	A (0% ≤ substrate protein remaining % ≤ 80%)	A (0% ≤ substrate protein remaining % ≤ 80%)
Cn1cc(C2CCN(Cc3ccc4c(c3)CN(C3CCC(=O)NC3=O)C4=O)CC2)c2ccc(F)cc21 (stereo not shown) [GT-04858, 3-(5-((4-(6-fluoro-1-methyl-1H-indol-3-yl)piperidin-1-yl)methyl)-1-oxoisoindolin-2-yl)piperidine-2,6-dione]	1 to 5	1 to 5	< 1	> 6.30		A (0% ≤ substrate protein remaining % ≤ 80%)	A (0% ≤ substrate protein remaining % ≤ 80%)	5 to 10	B (80%< substrate protein remaining %≤ 100%)	A (0% ≤ substrate protein remaining % ≤ 80%)	A (0% ≤ substrate protein remaining % ≤ 80%)	A (0% ≤ substrate protein remaining % ≤ 80%)
O=C1CCC(N2Cc3cc(CN4CCC(n5cnc6cc(F)ccc65)CC4)ccc3C2=O)C(=O)N1 (stereo not shown) [GT-04905, 3-(5-((4-(5-fluoro-1H-benzo[d]imidazol-1-yl)piperidin-1-yl)methyl)-1-oxoisoindolin-2-yl)piperidine-2,6-dione]	100 to 500	100 to 500	1 to 5	> 6.30		A (0% ≤ substrate protein remaining % ≤ 80%)	B (80%< substrate protein remaining %≤ 100%)		B (80%< substrate protein remaining %≤ 100%)	B (80%< substrate protein remaining %≤ 100%)	A (0% ≤ substrate protein remaining % ≤ 80%)	A (0% ≤ substrate protein remaining % ≤ 80%)
O=C1CCC(N2Cc3cc(CN4CC=C(c5ncnc6sc7c(c56)CCC7)CC4)ccc3C2=O)C(=O)N1 (stereo not shown) [GT-04934, 3-(5-((4-(6,7-dihydro-5H-cyclopenta[4,5]thieno[2,3-d]pyrimidin-4-yl)-3,6-dihydropyridin-1(2H)-yl)methyl)-1-oxoisoindolin-2-yl)piperidine-2,6-dione]	50 to 100	10 to 50	< 1	> 6.30		A (0% ≤ substrate protein remaining % ≤ 80%)	A (0% ≤ substrate protein remaining % ≤ 80%)	100 to 500	A (0% ≤ substrate protein remaining % ≤ 80%)	A (0% ≤ substrate protein remaining % ≤ 80%)	A (0% ≤ substrate protein remaining % ≤ 80%)	A (0% ≤ substrate protein remaining % ≤ 80%)
O=C1CCC(N2Cc3cc(CN4CC=C(c5ncnc6sc7c(c56)CCCC7)CC4)ccc3C2=O)C(=O)N1 (stereo not shown) [GT-05266, 3-(1-oxo-5-((4-(5,6,7,8-tetrahydrobenzo[4,5]thieno[2,3-d]pyrimidin-4-yl)-3,6-dihydropyridin-1(2H)-yl)methyl)isoindolin-2-yl)piperidine-2,6-dione]			5 to 10	> 6.30	10 to 50	A (0% ≤ substrate protein remaining % ≤ 80%)	A (0% ≤ substrate protein remaining % ≤ 80%)		A (0% ≤ substrate protein remaining % ≤ 80%)	A (0% ≤ substrate protein remaining % ≤ 80%)	A (0% ≤ substrate protein remaining % ≤ 80%)	A (0% ≤ substrate protein remaining % ≤ 80%)
